target: T1, human M4 muscarinic acetylcholine receptor (Homo sapiens, UniProt P08173); assay: human FLIPR-based M4 PAM assay (calcium mobilization in CHO-K1 cells with human M4 receptor and Gαqi5); type: cell-based; conditions: inflection point of dose response curve, acetylcholine at 20% of maximum response, FLIPR Tetra, read-out: M4 PAM IP
T1 construct: expressed in transfected cells; host or cells: CHO-K1
T1 sequence (P08173 1-479): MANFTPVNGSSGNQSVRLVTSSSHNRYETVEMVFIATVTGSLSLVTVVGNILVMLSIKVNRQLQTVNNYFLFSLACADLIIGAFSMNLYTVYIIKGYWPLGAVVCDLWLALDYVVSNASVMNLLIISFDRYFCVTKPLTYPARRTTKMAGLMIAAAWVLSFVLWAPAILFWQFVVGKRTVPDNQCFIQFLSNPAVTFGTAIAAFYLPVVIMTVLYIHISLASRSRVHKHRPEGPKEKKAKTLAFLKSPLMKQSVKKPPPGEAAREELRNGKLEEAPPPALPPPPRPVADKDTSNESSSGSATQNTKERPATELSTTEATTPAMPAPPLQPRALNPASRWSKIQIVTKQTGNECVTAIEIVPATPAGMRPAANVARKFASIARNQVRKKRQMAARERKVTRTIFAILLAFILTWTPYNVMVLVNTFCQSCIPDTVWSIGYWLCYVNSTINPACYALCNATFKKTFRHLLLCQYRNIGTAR
Protocol: (§1) In a typical experiment the M4 muscarinic acetylcholine receptor modulating activity of the compounds of the present invention was determined in accordance with the following experimental method. CHO-K1 cells stably transfected with human M4 receptor and chimeric G-protein Gαqi5 (Coward P, et al., Analytical Biochemistry, 270:242-248 (1999)) are thawed from liquid N2 storage, resuspended in growth medium, plated in black, clear bottom 384 well plates, and incubated 16-20 hours at 37° C., 5% CO2. On the day of assay, growth medium is removed, the cells are washed 2 times with wash buffer, and cells are incubated in dye loading buffer at 37° C., 5% CO2 for ˜1 hour. Following dye loading the cell plates are placed in a FLIPR Tetra instrument and while monitoring dye fluorescence (excitation […]), 10 uL of test substance at increasing concentrations is added, and fluorescence values are recorded for 4 min. Next, 10 uL of acetylcholine is added (final concentration calculated so as to achieve 20% of the maximum acetycholine response), and the fluorescence reading is continued for 3.5 min. In some cases, a third addition of acetylcholine (final concentration calculated to achieve 70% of the maximal acetylcholine response) is performed. The resulting dose response curves are fit to a 4 parameter logistic equation and the final result is determined as the inflection point (IP) of the curve
as §1, with “CHO-K1” for “In a typical experiment the M4 muscarinic acetylcholine receptor modulating activity of the compounds of the present invention was determined in accordance with the following experimental method. CHO-K1”, “Gαqi5” for “Gαqi5 (Coward P, et al., Analytical Biochemistry, 270:242-248 (1999))”, “performed.” for “performed. The resulting dose response curves are fit to a 4 parameter logistic equation and the final result is determined as the inflection point (IP) of the curve”

Point of comparison: `CC1(Cn2cc(-c3cc4c(nc3-c3ccc5c(c3)C(=O)N(CCC#N)C5)CCC4)cn2)CCCC1` [Example 56, 3-(6-(3-(1-((1-methylcyclopentyl)methyl)-1H-pyrazol-4-yl)-6,7-dihydro-5H-cyclopenta[b]pyridin-2-yl)-1-oxoisoindolin-2-yl)propanenitrile], EC50 72 nM. Against it:
- CN1Cc2ccc(-c3ncc(F)cc3-c3cnn(CC4(C)CCCC4)c3)cc2C1=O [Example 50, 6-(5-fluoro-3-(1-((1-methylcyclopentyl)methyl)-1H-pyrazol-4-yl)pyridin-2-yl)-2-methylisoindolin-1-one] — 1.9-fold lower, 38 nM
- CN1Cc2ccc(-c3nc(C#N)c(N)cc3-c3cnn(CC4(C)CCCC4)c3)cc2C1=O [Example 51, 3-amino-6-(2-methyl-3-oxoisoindolin-5-yl)-5-(1-((1-methylcyclopentyl)methyl)-1H-pyrazol-4-yl)picolinonitrile] — within 1.5-fold, 75 nM
- CN1Cc2ccc(-c3nc(CF)ccc3-c3cnn(CC4(C)CCCC4)c3)cc2C1=O [Example 52, 6-(6-(fluoromethyl)-3-(1-((1-methylcyclopentyl)methyl)-1H-pyrazol-4-yl)pyridin-2-yl)-2-methylisoindolin-1-one] — 1.8-fold lower, 40 nM
- Cc1cc(-c2cnn(CC3(C)CCCC3)c2)c(-c2ccc3c(c2)C(=O)N(C)C3)nc1F [Example 53, 6-(6-fluoro-5-methyl-3-(1-((1-methylcyclopentyl)methyl)-1H-pyrazol-4-yl)pyridin-2-yl)-2-methylisoindolin-1-one] — within 1.5-fold, 61 nM
- CN1Cc2ncc(-c3nc(C#N)ccc3-c3cnn(CC4(C)CCCC4)c3F)cc2C1=O [Example 54, 5-(5-fluoro-1-((1-methylcyclopentyl)methyl)-1H-pyrazol-4-yl)-6-(6-methyl-5-oxo-6,7-dihydro-5H-pyrrolo[3,4-b]pyridin-3-yl)picolinonitrile] — 9-fold lower, 8 nM
- CC1(Cn2cc(-c3cc4c(nc3-c3ccc5c(c3)C(=O)NC5)CCC4)cn2)CCCC1 [Example 55, 6-(3-(1-((1-methylcyclopentyl)methyl)-1H-pyrazol-4-yl)-6,7-dihydro-5H-cyclopenta[b]pyridin-2-yl)isoindolin-1-one] — 1.9-fold lower, 38 nM
- CN1Cc2ccc(-c3nc(F)ccc3-c3cnn(CC4(C)CCCC4)c3F)cc2C1=O [Example 57, 6-(6-fluoro-3-(5-fluoro-1-((1-methylcyclopentyl)methyl)-1H-pyrazol-4-yl)pyridin-2-yl)-2-methylisoindolin-1-one] — 1.6-fold lower, 44 nM
- CN1Cc2ncc(-c3nc(CF)ccc3-c3cnn(CC4(C)CCCC4)c3)cc2C1=O [Example 58, 3-(6-(fluoromethyl)-3-(1-((1-methylcyclopentyl)methyl)-1H-pyrazol-4-yl)pyridin-2-yl)-6-methyl-6,7-dihydro-5H-pyrrolo[3,4-b]pyridin-5-one] — 2.1-fold lower, 35 nM
- CN1Cc2ncc(-c3nc(F)ccc3-c3cnn(CC4(C)CCCC4)c3F)cc2C1=O [Example 59, 3-(6-fluoro-3-(5-fluoro-1-((1-methylcyclopentyl)methyl)-1H-pyrazol-4-yl)pyridin-2-yl)-6-methyl-6,7-dihydro-5H-pyrrolo[3,4-b]pyridin-5-one] — 5.1-fold lower, 14 nM
- CN1C(=O)c2cc(-c3nc(C#N)ccc3-c3cnn(CC4(C)CCCC4)c3)ccc2C1(C)C [Example 60] — within 1.5-fold, 99 nM
- CN1Cc2ncc(-c3nc4c(cc3-c3cnn(CC5(C)CCCC5)c3)CCC4)cc2C1=O [Example 61, 6-methyl-3-(3-(1-((1-methylcyclopentyl)methyl)-1H-pyrazol-4-yl)-6,7-dihydro-5H-cyclopenta[b]pyridin-2-yl)-6,7-dihydro-5H-pyrrolo[3,4-b]pyridin-5-one] — within 1.5-fold, 59 nM
- Cc1cc(N)c(-c2cnn(CC3(C)CCCC3)c2)c(-c2ccc3c(c2)C(=O)N(C)C3)n1 [Example 62, 6-(4-amino-6-methyl-3-(1-((1-methylcyclopentyl)methyl)-1H-pyrazol-4-yl)pyridin-2-yl)-2-methylisoindolin-1-one] — 4.1-fold higher, 293 nM
- CN1Cc2ccc(-c3nc(Cl)cc(N)c3-c3cnn(CC4(C)CCCC4)c3)cc2C1=O [Example 63, 6-(4-amino-6-chloro-3-(1-((1-methylcyclopentyl)methyl)-1H-pyrazol-4-yl)pyridin-2-yl)-2-methylisoindolin-1-one] — 6.8-fold higher, 489 nM
- CC1(Cn2cc(-c3ccc(C#N)nc3-c3ccc4c(c3)C(=O)NC4(C)C)cn2)CCCC1 [Example 64, 6-(1,1-dimethyl-3-oxoisoindolin-5-yl)-5-(1-((1-methylcyclopentyl)methyl)-1H-pyrazol-4-yl)picolinonitrile] — 1.7-fold higher, 119 nM
- Cc1ccc(-c2cnn(CC3(C)CCCC3)c2)c(-c2ccc3c(c2)C(=O)N(CC2CC2)C3)n1 [Example 65, 2-(cyclopropylmethyl)-6-(6-methyl-3-(1-((1-methylcyclopentyl)methyl)-1H-pyrazol-4-yl)pyridin-2-yl)isoindolin-1-one] — 1.9-fold higher, 136 nM
- CC1(Cn2cc(-c3cc4c(nc3-c3cnc5c(c3)C(=O)N(CCF)C5)CCC4)cn2)CCCC1 [Example 66, 6-(2-fluoroethyl)-3-(3-(1-((1-methylcyclopentyl)methyl)-1H-pyrazol-4-yl)-6,7-dihydro-5H-cyclopenta[b]pyridin-2-yl)-6,7-dihydro-5H-pyrrolo[3,4-b]pyridin-5-one] — 1.8-fold lower, 39 nM
- CN1Cc2ccc(-c3nc(CF)ccc3-c3cnn(CC4(C)CCCC4)c3F)cc2C1=O [Example 68, 6-(3-(5-fluoro-1-((1-methylcyclopentyl)methyl)-1H-pyrazol-4-yl)-6-(fluoromethyl)pyridin-2-yl)-2-methylisoindolin-1-one] — 3.1-fold lower, 23 nM
- CC1(Cn2cc(-c3cc4c(nc3-c3cnc5c(c3)C(=O)N(CCC#N)C5)CCC4)cn2)CCCC1 [Example 69, 3-(3-(3-(1-((1-methylcyclopentyl)methyl)-1H-pyrazol-4-yl)-6,7-dihydro-5H-cyclopenta[b]pyridin-2-yl)-5-oxo-5,7-dihydro-6H-pyrrolo[3,4-b]pyridin-6-yl)propanenitrile] — 2.1-fold lower, 34 nM
- COCCN1Cc2ncc(-c3nc4c(cc3-c3cnn(CC5(C)CCCC5)c3)CCC4)cc2C1=O [Example 70, 6-(2-methoxyethyl)-3-(3-(1-((1-methylcyclopentyl)methyl)-1H-pyrazol-4-yl)-6,7-dihydro-5H-cyclopenta[b]pyridin-2-yl)-6,7-dihydro-5H-pyrrolo[3,4-b]pyridin-5-one] — 1.5-fold lower, 47 nM
- CN1C(=O)c2cc(-c3nc4c(cc3-c3cnn(CC5(C)CCCC5)c3)CCC4)cnc2C1(C)C [Example 71, 6,7,7-trimethyl-3-(3-(1-((1-methylcyclopentyl)methyl)-1H-pyrazol-4-yl)-6,7-dihydro-5H-cyclopenta[b]pyridin-2-yl)-6,7-dihydro-5H-pyrrolo[3,4-b]pyridin-5-one] — 2.1-fold lower, 35 nM
- CN1C(=O)c2cc(-c3nc(C#N)ccc3-c3cnn(CC4(C)CCCC4)c3)ccc2C1(C)C [Example 72] — 1.8-fold lower, 41 nM
- COCCN1Cc2ccc(-c3nc4c(cc3-c3cnn(CC5(C)CCCC5)c3)CCC4)cc2C1=O [Example 73, 2-(2-methoxyethyl)-6-(3-(1-((1-methylcyclopentyl)methyl)-1H-pyrazol-4-yl)-6,7-dihydro-5H-cyclopenta[b]pyridin-2-yl)isoindolin-1-one] — within 1.5-fold, 52 nM
- CN1Cc2ncc(-c3nc4c(cc3-c3cnn(CC5(C)CCCC5)c3F)CCC4)cc2C1=O [Example 74, 3-(3-(5-fluoro-1-((1-methylcyclopentyl)methyl)-1H-pyrazol-4-yl)-6,7-dihydro-5H-cyclopenta[b]pyridin-2-yl)-6-methyl-6,7-dihydro-5H-pyrrolo[3,4-b]pyridin-5-one] — 3-fold lower, 24 nM

Reference: patent publication US10933056B2, “3-(1H-pyrazol-4-yl)pyridine allosteric modulators of the M4 muscarinic acetylcholine receptor” (Merck Sharp & Dohme Corp., priority 2015, dated 2021)
